Patent publication US20160194299A1 (priority 2013, published 2016)
Values after ≈ are worked out from the molar mass of the structure shown. Where two headings read alike, the source gives them in different places.

How the values were obtained:
[1] = tested on: Mtb; assay: microbe, parasite or virus in culture; format: cell-based, Mycobacterium tuberculosis; details: for MIC: Mycobacterium tuberculosis, read-out: MIC (II)
[2] = tested on: Mtb; assay: microbe, parasite or virus in culture; format: cell-based, Mycobacterium tuberculosis; details: Mycobacterium tuberculosis, read-out: MIC (I)
[3] = tested on: Mtb; assay: microbe, parasite or virus in culture; format: cell-based, Mycobacterium tuberculosis; details: Mycobacterium tuberculosis, read-out: MIC (III)
[4] = in vitro; details: African green monkey

Row | Structure (SMILES) | MIC [1] [µg/mL] | MIC (II) [1] | MIC [2] [µg/mL] | MIC [3] [µg/mL] | CC50 [4] [µg/mL]
1 | CCOC(=O)NC(=O)c1ccsc1NC(=O)c1csc(-c2ccncc2)n1 [Compound 2] | 1 to 3 (≈ 2.48 to 7.45 µM) |  |  |  | 
2 | COC(=O)NC(=O)c1ccsc1NC(=O)c1ccc(S(=O)(=O)N2CCCC2)cc1 [Compound 5] | < 1 |  |  |  | 
3 | CCOC(=O)NC(=O)c1ccsc1NC(=O)c1nc2cc(OC)ccc2s1 [Compound 6] | < 1 |  |  |  | 
4 | CCNC(=O)Nc1cc(C(=O)Nc2sccc2C(=O)NC(=O)OCC)ccn1 [Compound 7] | < 1 |  |  |  | 
5 | CCOC(=O)NC(=O)c1ccsc1NC(=O)c1ccnc(NC(=O)c2ccc(F)cc2)c1 [Compound 8] | 1 to 3 (≈ 2.19 to 6.57 µM) |  |  |  | 
6 | CCOC(=O)NC(=O)c1ccsc1NC(=O)c1ccc2c(c1)NC(=O)CS2 [Compound 9] | 1 to 3 (≈ 2.47 to 7.4 µM) |  |  |  | 
7 | C#CCNC(=O)[C@H](CCC1(C)N=N1)NC(=O)CCC(=O)Nc1cc(C(=O)Nc2sccc2C(=O)NC(=O)OCC)ccn1 [Compound 98] | 1 to 3 (≈ 1.64 to 4.91 µM) |  |  |  | 
8 | CCOC(=O)NC(=O)c1ccsc1NC(=O)c1ccc(S(C)(=O)=O)c([N+](=O)[O-])c1 [Compound 148] | > 3 |  |  |  | 
9 | CCOC(=O)NC(=O)c1ccsc1NC(=O)c1ccnc(OCC)c1 [Compound 149] | > 3 |  |  |  | 
10 | CCOC(=O)NC(=O)c1ccsc1NC(=O)c1ccc(S(C)(=O)=O)c(N)c1 [Compound 150] | > 3 |  |  |  | 
11 | CCOC(=O)NC(=O)c1ccsc1NC(=O)c1sc2ncnc(O)c2c1C [Compound 151] | > 3 |  |  |  | 
12 | CCOC(=O)NC(=O)c1ccsc1NC(=O)c1cnc(N2CCOCC2)nc1 [Compound 152] | > 3 |  |  |  | 
13 | CCOC(=O)NC(=O)c1ccsc1NC(=O)c1ccnc(NS(=O)(=O)c2ccc(C)cc2)c1 [Compound 153] | > 3 |  |  |  | 
14 | CCOC(=O)NC(=O)c1ccsc1NC(=O)c1ccnc(NC(=O)OCc2ccccc2)c1 [Compound 154] | > 3 |  |  |  | 
15 | CCOC(=O)NC(=O)c1ccsc1NC(=O)C1CCN(c2ccccn2)CC1 [Compound 155] | > 3 |  |  |  | 
16 | CC(=O)Nc1cc(C(=O)Nc2sccc2S(=O)(=O)c2ccccc2)ccn1 [Compound 156] | > 3 |  |  |  | 
17 | CCOC(=O)NC(=O)c1ccsc1NC(=O)c1ccc(C(C)(F)F)nc1 [Compound 157] | > 3 |  |  |  | 
18 | CCOC(=O)NC(=O)c1ccsc1NC(=O)c1cncs1 [Compound 158] | > 3 |  |  |  | 
19 | CCOC(=O)NC(=O)c1ccsc1NC(=O)c1cnc2[nH]ccc2c1 [Compound 159] |  | C (key: A: <1 μg/mL; B: 1-3 μg/mL; C: >3 μg/mL) |  |  | 
20 | CC(C)c1nnc(NC(=O)c2ccsc2NC(=O)c2nc3ccccc3s2)o1 [Compound 160] | > 3 |  |  |  | 
21 | CCOC(=O)NC(=O)c1ccsc1NC(=O)c1nc(C)cs1 [Compound 161] | > 3 |  |  |  | 
22 | CCOC(=O)NC(=O)c1ccsc1NC(=O)c1ccc2[nH]c(S)nc2c1 [Compound 162] |  | C (key: A: <1 μg/mL; B: 1-3 μg/mL; C: >3 μg/mL) |  |  | 
23 | CCOC(=O)NC(=O)c1ccsc1NC(=O)c1ccnc(N)c1 [Compound 163] | > 3 |  |  |  | 
24 | CCOC(=O)NC(=O)c1ccsc1NC(=O)c1cncnc1 [Compound 164] | > 3 |  |  |  | 

Row | Structure (SMILES) | MIC [1] [µg/mL] | MIC (II) [1] | MIC [2] [µg/mL] | MIC [3] [µg/mL] | CC50 [4] [µg/mL]
25 | CCOC(=O)NC(=O)c1ccsc1NC(=O)c1ccncn1 [Compound 165] | > 3 |  |  |  | 
26 | CCOC(=O)NC(=O)c1ccsc1NC(=O)c1cnccn1 [Compound 166] | > 3 |  |  |  | 
27 | CCOC(=O)NC(=O)c1ccsc1NC(=O)c1ccccn1 [Compound 167] | > 3 |  |  |  | 
28 | CCOC(=O)NC(=O)c1ccsc1NC(=O)c1ccnc(N(C)C)c1 [Compound 168] | > 3 |  |  |  | 
29 | Cc1c(-c2ccccc2)sc(NC(=O)c2nc3ccccc3s2)c1C(=O)N1CCOCC1 [Compound 169] | > 3 |  |  |  | 
30 | CCOC(=O)NC(=O)c1ccsc1NC(=O)c1ccncc1 [Compound 170] | > 3 |  |  |  | 
31 | CCOC(=O)NC(=O)c1ccsc1NC(=O)Cc1ccccc1 [Compound 171] | > 3 |  |  |  | 
32 | CCOC(=O)NC(=O)c1ccsc1NC(=O)c1cccc(F)c1 [Compound 172] | > 3 |  |  |  | 
33 | CCOC(=O)NC(=O)c1ccsc1NC(=O)c1c(F)ccc(OC)c1F [Compound 173] | > 3 |  |  |  | 
34 | CCOC(=O)NC(=O)c1ccsc1NC(=O)c1ccc(OC)cc1 [Compound 174] | > 3 |  |  |  | 
35 | CCOC(=O)NC(=O)c1ccsc1NC(=O)c1c(F)ccc(C)c1F [Compound 175] | > 3 |  |  |  | 
36 | COC(=O)NC(=O)c1ccsc1NC(=O)c1cn2ccccc2n1 [Compound 347] |  |  | > 3 | > 25 | 25 to 50 (≈ 72.6 to 145 µM)
37 | O=C(NCC(F)(F)F)NC(=O)c1ccsc1NC(=O)c1nc2ccccc2s1 [Compound 349] |  |  | > 3 | > 25 | 25 to 50 (≈ 58.4 to 117 µM)
38 | CC(C)OC(=O)NC(=O)c1ccsc1NC(=O)c1cc2ccccn2n1 [Compound 352] |  |  | < 1 | > 25 | 25 to 50 (≈ 67.1 to 134 µM)
39 | CCOC(=O)NC(=O)c1ccsc1NC(=O)c1cnc2ccoc2c1 [Compound 353] |  |  | 1 to 3 (≈ 2.78 to 8.35 µM) | > 25 | 25 to 50 (≈ 69.6 to 139 µM)
40 | CC(C)OC(=O)NC(=O)c1ccsc1NC(=O)c1cnc2ccoc2c1 [Compound 354] |  |  | > 3 | > 25 | 25 to 50 (≈ 67 to 134 µM)
41 | CCOC(=O)NC(=O)c1ccsc1NC(=O)/C=C/c1ccncc1 [Compound 356] |  |  | > 3 | > 25 | 25 to 50 (≈ 72.4 to 145 µM)
42 | CCOC(=O)NC(=O)c1ccsc1NC(=O)/C=C/c1nc2ccccc2s1 [Compound 365] |  |  | < 1 | > 25 | < 25
43 | CC(C)OC(=O)NC(=O)c1ccsc1NC(=O)/C=C/c1nc2ccccc2s1 [Compound 366] |  |  | < 1 | 5 to 25 (≈ 12 to 60.2 µM) | < 25
44 | CC(=O)N1CCC(OC(=O)NC(=O)c2ccsc2NC(=O)c2nc3cnccc3s2)CC1 [Compound 367] |  |  | > 3 | > 25 | 25 to 50 (≈ 52.8 to 106 µM)
45 | CC(=O)N1CCC(OC(=O)NC(=O)c2ccsc2NC(=O)c2cnc3ccnn3c2)CC1 [Compound 368] |  |  | > 3 | > 25 | 25 to 50 (≈ 54.8 to 110 µM)
46 | O=C(NC(=O)c1ccsc1NC(=O)c1nc2cnccc2s1)OCCOCc1ccccc1 [Compound 369] |  |  | < 1 | > 25 | 25 to 50 (≈ 51.8 to 104 µM)
47 | O=C(NC(=O)c1ccsc1NC(=O)c1nc2ccccc2s1)OCCOCc1ccccc1 [Compound 371] |  |  | < 1 | 5 to 25 (≈ 10.4 to 51.9 µM) | < 25
48 | COCCOC(=O)NC(=O)c1ccsc1NC(=O)c1cnc2ccnn2c1 [Compound 372] |  |  | < 1 | > 25 | 25 to 50 (≈ 64.2 to 128 µM)

Row | Structure (SMILES) | MIC [1] [µg/mL] | MIC (II) [1] | MIC [2] [µg/mL] | MIC [3] [µg/mL] | CC50 [4] [µg/mL]
49 | COCCOC(=O)NC(=O)c1ccsc1NC(=O)c1cn2ccccc2n1 [Compound 373] |  |  | > 3 | > 25 | 25 to 50 (≈ 64.4 to 129 µM)
50 | O=C(NC(=O)c1ccsc1NC(=O)c1cn2ccccc2n1)OCCOCc1ccccc1 [Compound 374] |  |  | < 1 | > 25 | 25 to 50 (≈ 53.8 to 108 µM)
51 | CC(=O)N1CCC(OC(=O)NC(=O)c2ccsc2NC(=O)c2cn3ccccc3n2)CC1 [Compound 375] |  |  | > 3 | > 25 | 25 to 50 (≈ 54.9 to 110 µM)
52 | CCOC(=O)N(C)C(=O)c1ccsc1NC(=O)c1nc2cnccc2s1 [Compound 376] |  |  | > 3 | > 25 | < 25
53 | CCOC(=O)N(C)C(=O)c1ccsc1NC(=O)c1cn2ccccc2n1 [Compound 377] |  |  | > 3 | > 25 | 25 to 50 (≈ 67.1 to 134 µM)
54 | CCOC(=O)NC(=O)c1ccsc1NC(=O)c1nsc2ccccc12 [Compound 378] |  |  | > 3 | > 25 | 25 to 50 (≈ 66.6 to 133 µM)
55 | O=C(NC(=O)c1ccsc1NC(=O)c1nc2cnccc2s1)OC1CCCC1 [Compound 380] |  |  | < 1 | > 25 | < 25
56 | O=C(NC(=O)c1ccsc1NC(=O)c1cn2ccccc2n1)OC1CCCCC1 [Compound 381] |  |  | > 3 | > 25 | < 25
57 | CN(C)C(=O)NC(=O)c1ccsc1NC(=O)c1cn2ccccc2n1 [Compound 383] |  |  | > 3 | > 25 | < 25
58 | CN(C)C(=O)NC(=O)c1ccsc1NC(=O)c1nc2cnccc2s1 [Compound 384] |  |  | > 3 | > 25 | < 25
59 | O=C(Nc1sccc1C(=O)NC(=O)N1CCOCC1)c1nc2cnccc2s1 [Compound 386] |  |  | > 3 | > 25 | < 25
60 | CCOC(=O)NC(=O)c1cc(F)sc1NC(=O)c1ccc2nccn2n1 [Compound 387] |  |  | 1 to 3 (≈ 2.65 to 7.95 µM) | > 25 | < 25
61 | O=C(NC(=O)c1cc(F)sc1NC(=O)c1nc2ccccc2s1)OCCN1CCOCC1 [Compound 388] |  |  | < 1 | > 25 | < 25
62 | CCOC(=O)NC(=O)c1cc(F)sc1NC(=O)c1nc2ncccc2s1 [Compound 389] |  |  | 1 to 3 (≈ 2.54 to 7.61 µM) | > 25 | < 25
63 | CC(C)OC(=O)NC(=O)c1ccsc1NC(=O)c1nc2ncccc2s1 [Compound 390] |  |  | < 1 | > 25 | < 25
64 | CC(C)OC(=O)NC(=O)c1cc(F)sc1NC(=O)c1nc2ncccc2s1 [Compound 391] |  |  | < 1 | > 25 | < 25
65 | CCOC(=O)NC(=O)c1ccsc1NC(=O)c1nc2ccc(NC(=O)CN)cc2s1 [Compound 393] |  |  | > 3 | > 25 | < 25
66 | CCOC(=O)NC(=O)c1ccsc1NC(=O)c1cnc2ccsc2c1 [Compound 394] |  |  | < 1 | > 25 | < 25
67 | CC(C)OC(=O)NC(=O)c1ccsc1NC(=O)c1cnc2ccsc2c1 [Compound 395] |  |  | < 1 | > 25 | < 25
68 | CCOC(=O)NC(=O)c1ccsc1NC(=O)c1nc2ccccc2o1 [Compound 396] |  |  | < 1 | > 25 | < 25
69 | CC(C)OC(=O)NC(=O)c1ccsc1NC(=O)c1nc2ccccc2o1 [Compound 397] |  |  | < 1 | > 25 | < 25
70 | CCOC(=O)NC(=O)c1ccsc1NC(=O)c1ccc2nccnc2c1 [Compound 398] |  |  | < 1 | 5 to 25 (≈ 13.5 to 67.5 µM) | < 25
71 | CC(C)OC(=O)NC(=O)c1ccsc1NC(=O)c1ccc2nccnc2c1 [Compound 399] |  |  | < 1 | > 25 | < 25
